Measurements taken from patent US10377770B2 (Novartis AG, priority 2015, dated 2019).

biological target: C-Raf FL (full length CRAF with Y340E and Y341E activating mutations, co-expressed with h14-3-3 zeta) (Homo sapiens (Human), UniProt P04049, Y340E/Y341E); test: In vitro Raf activity determination, AlphaScreen p-MEK readout, c-Raf (C-Raf FL); assay type: biochemical; settings: c-Raf approximately 4 nM, ATP 1 μM, pre-incubation 60 minutes, reaction 1 hour
Procedure, shortened: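 Phosphorylation of kinase-dead biotinylated MEK1 (~10 nM) by C-Raf FL (~4 nM) read by AlphaScreen luminescence with anti-phospho-MEK1/2 after EDTA stop. ATP was 1 μM, with a 1 h reaction at room temperature. Compounds were pre-incubated with enzyme and substrate for 60 min in Tris/MgCl2 buffer, pH 7.5.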

Chain of C-Raf FL (full length CRAF with Y340E and Y341E activating mutations, co-expressed with h14-3-3 zeta) (P04049 whole entry Y340E/Y341E): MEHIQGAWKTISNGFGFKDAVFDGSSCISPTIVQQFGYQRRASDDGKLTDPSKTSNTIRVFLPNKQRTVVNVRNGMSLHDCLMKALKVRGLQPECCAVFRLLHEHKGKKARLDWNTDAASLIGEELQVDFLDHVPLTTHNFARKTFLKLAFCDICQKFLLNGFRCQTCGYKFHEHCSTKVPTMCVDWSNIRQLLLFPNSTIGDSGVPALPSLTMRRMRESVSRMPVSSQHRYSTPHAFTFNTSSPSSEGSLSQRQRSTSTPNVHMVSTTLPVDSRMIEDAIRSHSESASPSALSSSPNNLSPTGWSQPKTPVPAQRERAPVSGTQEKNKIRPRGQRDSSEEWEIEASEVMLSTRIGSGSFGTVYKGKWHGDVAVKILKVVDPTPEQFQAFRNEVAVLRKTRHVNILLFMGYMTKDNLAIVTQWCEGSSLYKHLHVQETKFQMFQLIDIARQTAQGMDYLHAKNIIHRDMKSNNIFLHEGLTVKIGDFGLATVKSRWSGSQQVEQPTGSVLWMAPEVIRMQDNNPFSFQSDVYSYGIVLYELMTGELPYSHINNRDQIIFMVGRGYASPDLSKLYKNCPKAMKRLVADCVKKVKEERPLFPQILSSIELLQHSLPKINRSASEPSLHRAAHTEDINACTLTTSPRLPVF
Chain of C-Raf FL (full length CRAF with Y340E and Y341E activating mutations, co-expressed with h14-3-3 zeta) (P63104 whole entry partner): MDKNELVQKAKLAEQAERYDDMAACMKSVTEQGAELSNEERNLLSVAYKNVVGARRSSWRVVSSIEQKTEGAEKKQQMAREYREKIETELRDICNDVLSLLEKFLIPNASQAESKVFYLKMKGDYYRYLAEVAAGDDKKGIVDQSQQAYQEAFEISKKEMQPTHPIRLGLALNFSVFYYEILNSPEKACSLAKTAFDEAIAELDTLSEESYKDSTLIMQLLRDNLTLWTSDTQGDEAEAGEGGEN

Compound | IC50
CCN1C(=O)[C@@H]2[C@H]3COC[C@H]3[C@@H]2c2cc(-c3cc(NC(=O)c4cccc(C(F)(F)F)c4)cnc3C)cnc21 [Example 272, N-(5-((6aS, 6bS, 9aS, 9bS)-5-ethyl-6-oxo-5,6,6a,6b,7,9,9a,9b-octahydrofuro[3′,4′: 3,4]cyclobuta[1,2-c][1,8]naphthyridin-2-yl)-6-methylpyridin-3-yl)-3-(trifluoromethyl) benzamide] | 500 pM
CCN1C(=O)[C@@H]2[C@H]3COC[C@H]3[C@@H]2c2cc(-c3cc(NC(=O)c4ccnc(C(F)(F)F)c4F)ccc3C)cnc21 [Example 273, N-(3-((6aS, 6bS, 9aS, 9bS)-5-ethyl-6-oxo-5,6,6a,6b,7,9,9a,9b-octahydrofuro[3′,4′: 3,4]cyclobuta[1,2-c][1,8]naphthyridin-2-yl)-4-methylphenyl)-3-fluoro-2-(trifluoromethyl) isonicotinamide] | 200 pM
CCN1C(=O)[C@@H]2[C@H]3COC[C@H]3[C@@H]2c2cc(-c3cc(NC(=O)c4cncc(C(F)(F)F)c4)ccc3C)cnc21 [Example 274, N-(3-((6aS, 6bS, 9aS, 9bS)-5-ethyl-6-oxo-5,6,6a,6b,7,9,9a,9b-octahydrofuro[3′,4′: 3,4]cyclobuta[1,2-c][1,8]naphthyridin-2-yl)-4-methylphenyl)-5-(trifluoromethyl) nicotinamide] | 500 pM
CCN1C(=O)[C@H]2[C@@H]3COC[C@@H]3[C@H]2c2cc(-c3cc(NC(=O)c4cccc(C(F)(F)F)c4)cnc3C)cnc21 [Example 275, N-(5-((6aR, 6bR, 9aR, 9bR)-5-ethyl-6-oxo-5,6,6a,6b,7,9,9a,9b-octahydrofuro[3′,4′: 3,4]cyclobuta[1,2-c][1,8]naphthyridin-2-yl)-6-methylpyridin-3-yl)-3-(trifluoromethyl) benzamide] | 800 pM
CCN1C(=O)[C@H]2[C@@H]3COC[C@@H]3[C@H]2c2cc(-c3cc(NC(=O)c4ccnc(C(F)(F)F)c4F)ccc3C)cnc21 [Example 276, N-(3-((6aR, 6bR, 9aR, 9bR)-5-ethyl-6-oxo-5,6,6a,6b,7,9,9a,9b-octahydrofuro[3′,4′: 3,4]cyclobuta[1,2-c][1,8]naphthyridin-2-yl)-4-methylphenyl)-3-fluoro-2-(trifluoromethyl) isonicotinamide] | 500 pM
CCN1C(=O)[C@H]2[C@@H]3COC[C@@H]3[C@H]2c2cc(-c3cc(NC(=O)c4cncc(C(F)(F)F)c4)ccc3C)cnc21 [Example 277, N-(3-((6aR, 6bR, 9aR, 9bR)-5-ethyl-6-oxo-5,6,6a,6b,7,9,9a,9b-octahydrofuro[3′,4′: 3,4]cyclobuta[1,2-c][1,8]naphthyridin-2-yl)-4-methylphenyl)-5-(trifluoromethyl) nicotinamide] | 100 pM
Cc1ccc(NC(=O)c2ccnc(C(F)(F)F)c2)cc1-c1cnc2c(c1)C1C3COCC3C1C(=O)N2CCO (centres unmarked) [Example 278, N-(3-(5-(2-hydroxyethyl)-6-oxo-5,6,6a,6b,7,9,9a,9b-octahydrofuro[3′,4′: 3,4]cyclobuta[1,2-c][1,8]naphthyridin 2-yl)-4-methylphenyl)-2-(trifluoromethyl) isonicotinamide] | 300 pM
Cc1ccc(NC(=O)c2ccnc(C(C)(F)F)c2)cc1-c1cnc2c(c1)C1C3COCC3C1C(=O)N2CCO (centres unmarked) [Example 279, 2-(1,1-difluoroethyl)-N-(3-(5-(2-hydroxyethyl)-6-oxo-5,6,6a,6b,7,9,9a,9b-octahydrofuro[3′,4′: 3,4]cyclobuta[1,2-c][1,8]naphthyridin-2-yl)-4-methylphenyl) isonicotinamide] | 400 pM
Cc1ccc(NC(=O)c2ccnc(C(F)(F)F)c2F)cc1-c1cnc2c(c1)C1C3COCC3C1C(=O)N2CCO (centres unmarked) [Example 280, 3-fluoro-N-(3-(5-(2-hydroxyethyl)-6-oxo-5,6,6a,6b,7,9,9a,9b-octahydrofuro[3′,4′: 3,4]cyclobuta[1,2-c][1,8]naphthyridin-2-yl)-4-methylphenyl)-2-(trifluoromethyl) isonicotinamide] | 500 pM
Cc1ccc(NC(=O)c2ccnc(C(F)(F)F)c2)cc1-c1cnc2c(c1)C1C3COCC3C1C(=O)N2CCO (centres unmarked) [Example 281, N-(3-(5-(2-hydroxyethyl)-6-oxo-5,6,6a,6b,7,9,9a,9b-octahydrofuro[3′,4′: 3,4]cyclobuta[1,2-c][1,8]naphthyridin-2-yl)--4-methylphenyl)-2-(trifluoromethyl) isonicotinamide] | 200 pM
Cc1ccc(NC(=O)c2ccnc(C(F)(F)F)c2F)cc1-c1cnc2c(c1)C1C3COCC3C1C(=O)N2CCO (centres unmarked) [Example 283, 3-fluoro-N-(3-(5-(2-hydroxyethyl)-6-oxo-5,6,6a,6b,7,9,9a,9b-octahydrofuro[3′,4′: 3,4]cyclobuta[1,2-c][1,8]naphthyridin-2-yl)-4-methylphenyl)-2-(trifluoromethyl)-2-isonicotinamide] | 200 pM
Cc1ncc(NC(=O)c2cccc(C(F)(F)F)c2)cc1-c1cnc2c(c1)C1CCOCCC1C(=O)N2CCO (centres unmarked) [Example 285, N-(5-(7-(2-hydroxyethyl)-6-oxo-1,2,4,5,5a,6,7,11b-octahydrooxepino [4,5-c][1,8]naphthyridin-10-yl)-6-methylpyridin-3-yl)-3-(trifluoromethyl) benzamide] | 100 pM
Cc1ccc(NC(=O)c2ccnc(C(C)(F)F)c2)cc1-c1cnc2c(c1)[C@@H]1CCOC[C@H]1C(=O)N2CC(C)(C)O [Example 287, 2-(1,1-difluoroethyl)-N-(3-((4aS,10bR)-6-(2-hydroxy-2-methylpropyl)-5-oxo-2,4,4a,5,6,10b-hexahydro-1H-pyrano[3,4-c][1,8]naphthyridin-9-yl)-4-methylphenyl) isonicotinamide] | 200 pM
Cc1ccc(NC(=O)c2ccnc(C(F)(F)F)c2)cc1-c1cnc2c(c1)N1CCOC[C@H]1CC(=O)N2CC(C)(C)O [Example 288, (R)-N-(3-(7-(2-hydroxy-2-methylpropyl)-6-oxo-2,4,4a,5,6,7-hexahydro-1H-[1,4]oxazino[4,3-d]pyrido[2,3-b][1,4]diazepin-10-yl)-4-methylphenyl)-2-(trifluoromethyl) isonicotinamide] | 900 pM
Cc1ccc(NC(=O)c2ccnc(C(C)(F)F)c2)cc1-c1cnc2c(c1)N1CCOC[C@H]1CC(=O)N2CC(C)(C)O [Example 289, (R)-2-(1,1-difluoroethyl)-N-(3-(7-(2-hydroxy-2-methylpropyl)-6-oxo-2,4,4a,5,6,7-hexahydro-1H-[1,4]oxazino[4,3-d]pyrido[2,3-b][1,4]diazepin-10-yl)-4-methylphenyl) isonicotinamide] | 900 pM
Cc1ccc(NC(=O)c2ccnc(C(F)(F)F)c2F)cc1-c1cnc2c(c1)N1CCOC[C@H]1CC(=O)N2CC(C)(C)O [Example 290, (R)-3-fluoro-N-(3-(7-(2-hydroxy-2-methylpropyl)-6-oxo-2,4,4a,5,6,7-hexahydro-1H-[1,4]oxazino[4,3-d]pyrido[2,3-b][1,4]diazepin-10-yl)-4-methylphenyl)-2-(trifluoromethyl) isonicotinamide] | 1000 pM
CCN1C[C@@H]2COCC[C@H]2c2cc(-c3cc(NC(=O)c4ccnc(C(F)(F)F)c4)ccc3C)cnc21 [Example 291, N-(3-((4aR, 10bR)-6-ethyl-2,4,4a,5,6,10b-hexahydro-1H-pyrano[3,4-c][1,8]naphthyridin-9-yl)-4-methylpheny)-2-(trifluoromethyl) isonicotinamide] | 100 pM
CCN1C[C@@H]2COCC[C@H]2c2cc(-c3cc(NC(=O)c4ccnc(C(C)(F)F)c4)ccc3C)cnc21 [Example 292, 2-(1,1-difluoroethyl)-N-(3-((4aR, 10bR)-6-ethyl-2,4,4a,5,6,10b-hexahydro-1H-pyrano[3,4-c][1,8]naphthyridin-9-yl)-4-methylphenyl) isonicotinamide] | 100 pM
CCN1C[C@@H]2COCC[C@H]2c2cc(-c3cc(NC(=O)c4ccnc(C(F)(F)F)c4F)ccc3C)cnc21 [Example 293, N-(3-((4aR, 10bR)-6-ethyl-2,4,4a,5,6,10b-hexahydro-1H-pyrano[3,4-c][1,8]naphthyridin-9-yl)-4-methylphenyl)-3-fluoro-2-(trifluoromethyl) isonicotinamide] | 100 pM
CCN1C[C@@H]2COCC[C@H]2c2cc(-c3cc(NC(=O)c4cccc(C(F)(F)F)c4F)cnc3C)cnc21 [Example 294, N-(5-((4aR, 10bR)-6-ethyl-2,4,4a,5,6,10b-hexahydro-1H-pyrano[3,4-c][1,8]naphthyridin-9-yl)-6-methylpyridin-3-yl)-2-fluoro-3-(trifluoromethyl) benzamide] | 100 pM
CCN1C[C@@H]2COCC[C@H]2c2cc(-c3cc(NC(=O)c4cccc(C(F)(F)F)c4)cnc3C)cnc21 [Example 295, N-(5-((4aR, 10bR)-6-ethyl-2,4,4a,5,6,10b-hexahydro-1H-pyrano[3,4-c][1,8]naphthyridin-9-yl)-6-methylpyridin-3-yl)-3-(trifluoromethyl) benzamide] | 100 pM
CCN1C(=O)OC2COCCC2c2cc(-c3cc(NC(=O)c4cccc(C(F)(F)F)c4)cnc3C)cnc21 [Example 296, N-(5-((4aS,11bR- cis)-7-ethyl-6-oxo-2,4,4a,6,7,11b-hexahydro-1H-pyrano[4,3-f]pyrido[2,3-d][1,3]oxazepin-10-yl)-6-methylpyridin-3-yl)-3-(trifluoromethyl) benzamide] | 1800 pM
CCN1C(=O)OC2COCCC2c2cc(-c3cc(NC(=O)c4ccnc(C(F)(F)F)c4)ccc3C)cnc21 [Example 297, N-(3-((4aS,11bR- cis)7-ethyl-6-oxo-2,4,4a,6,7,11b-hexahydro-1H-pyrano[4,3-f]pyrido[2,3-d][1,3]oxazepin-10-yl)-4-methylphenyl)-2-(trifluoromethyl) isonicotinamide] | 200 pM
